# Results published in ChEMBL document CHEMBL1133591, “Potent derivatives of glucagon-like peptide-1 with pharmacokinetic properties suitable for once daily administration” (J Med Chem, 2000).
# Numbered stars: 1 amine (or outer) side, 2 acyl side, 3 side chain; on linkers, the order of the positions; unused ones are H or OH. Square brackets hold non-standard residues; d marks the D form. Side chains are listed from the residue outwards. Peptide text beside a SMILES is read from it. * marks the point of attachment. ξ: configuration not given here. X2 = CCCCCCCCCCCCCC(CCCCC(=O)*)C(=O)O; ξγGlu = O=C(O)C(CCC(=O)[*:2])N[*:1]; Stearoyl = CCCCCCCCCCCCCCCCCC(=O)*; Palmitoyl = CCCCCCCCCCCCCCCC(=O)*; ξK = NCCCCC(N)C(=O)O
# Target: Glucagon-like peptide 1 receptor (Homo sapiens, UniProt P43220)
# Assay: Potency measured using recombinant human GLP-1 receptor expressed in Baby Hamster Kidney (BHK)cells
# Assay type: cell-based
# Chain of Glucagon-like peptide 1 receptor (P43220 whole entry): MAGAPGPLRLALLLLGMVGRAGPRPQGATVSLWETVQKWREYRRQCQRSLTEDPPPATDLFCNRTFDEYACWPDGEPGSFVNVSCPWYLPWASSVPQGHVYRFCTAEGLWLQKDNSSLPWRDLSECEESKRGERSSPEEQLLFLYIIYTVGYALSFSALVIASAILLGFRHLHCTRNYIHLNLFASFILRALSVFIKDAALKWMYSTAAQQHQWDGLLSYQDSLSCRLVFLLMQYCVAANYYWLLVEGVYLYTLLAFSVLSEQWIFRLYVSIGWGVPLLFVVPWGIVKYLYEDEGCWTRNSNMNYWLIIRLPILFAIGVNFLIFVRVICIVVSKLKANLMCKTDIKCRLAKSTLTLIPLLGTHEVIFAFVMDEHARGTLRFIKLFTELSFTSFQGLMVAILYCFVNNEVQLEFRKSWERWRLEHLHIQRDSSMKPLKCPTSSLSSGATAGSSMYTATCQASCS
row,SMILES,EC50
1,CCCCCCCCCCCCCC(CCCCC(=O)NCCCC[C@H](NC(=O)CNC(=O)[C@H](CCCN=C(N)N)NC(=O)[C@@H](NC(=O)[C@H](CC(C)C)NC(=O)[C@H](Cc1c[nH]c2ccccc12)NC(=O)[C@H](C)NC(=O)[C@@H](NC(=O)[C@H](Cc1ccccc1)NC(=O)[C@H](CCC(=O)O)NC(=O)[C@H](CCCN=C(N)N)NC(=O)[C@H](C)NC(=O)[C@H](C)NC(=O)[C@H](CCC(N)=O)NC(=O)CNC(=O)[C@H](CCC(=O)O)NC(=O)[C@H](CC(C)C)NC(=O)[C@H](Cc1ccc(O)cc1)NC(=O)[C@H](CO)NC(=O)[C@H](CO)NC(=O)[C@@H](NC(=O)[C@H](CC(=O)O)NC(=O)[C@H](CO)NC(=O)[C@@H](NC(=O)[C@H](Cc1ccccc1)NC(=O)[C@@H](NC(=O)CNC(=O)[C@H](CCC(=O)O)NC(=O)[C@H](C)NC(=O)[C@@H](N)Cc1c[nH]cn1)[C@@H](C)O)[C@@H](C)O)C(C)C)[C@@H](C)CC)C(C)C)C(=O)NCC(=O)O)C(=O)O (stereo not given in full) (H-HAEGTFTSDVSSYLEGQAAREFIAWLVRGK(X2)G-OH),0.21 nM
2,CCCCCCCCCCCCCCCCCC(=O)NC(CCC(=O)NCCCC[C@H](NC(=O)CNC(=O)[C@H](CCCN=C(N)N)NC(=O)[C@@H](NC(=O)[C@H](CC(C)C)NC(=O)[C@H](Cc1c[nH]c2ccccc12)NC(=O)[C@H](C)NC(=O)[C@@H](NC(=O)[C@H](Cc1ccccc1)NC(=O)[C@H](CCC(=O)O)NC(=O)[C@H](CCCN=C(N)N)NC(=O)[C@H](C)NC(=O)[C@H](C)NC(=O)[C@H](CCC(N)=O)NC(=O)CNC(=O)[C@H](CCC(=O)O)NC(=O)[C@H](CC(C)C)NC(=O)[C@H](Cc1ccc(O)cc1)NC(=O)[C@H](CO)NC(=O)[C@H](CO)NC(=O)[C@@H](NC(=O)[C@H](CC(=O)O)NC(=O)[C@H](CO)NC(=O)[C@@H](NC(=O)[C@H](Cc1ccccc1)NC(=O)[C@@H](NC(=O)CNC(=O)[C@H](CCC(=O)O)NC(=O)[C@H](C)NC(=O)[C@@H](N)Cc1c[nH]cn1)[C@@H](C)O)[C@@H](C)O)C(C)C)[C@@H](C)CC)C(C)C)C(=O)NCC(=O)O)C(=O)O (stereo not given in full) (H-HAEGTFTSDVSSYLEGQAAREFIAWLVRGK([ξγGlu-Stearoyl])G-OH),0.116 nM
3,CCCCCCCCCCCCCCCC(=O)NC(CCC(=O)NCCCC[C@H](NC(=O)[C@H](CCCN=C(N)N)NC(=O)[C@H](C)NC(=O)[C@H](C)NC(=O)[C@H](CCC(N)=O)NC(=O)CNC(=O)[C@H](CCC(=O)O)NC(=O)[C@H](CC(C)C)NC(=O)[C@H](Cc1ccc(O)cc1)NC(=O)[C@H](CO)NC(=O)[C@H](CO)NC(=O)[C@@H](NC(=O)[C@H](CC(=O)O)NC(=O)[C@H](CO)NC(=O)[C@@H](NC(=O)[C@H](Cc1ccccc1)NC(=O)[C@@H](NC(=O)CNC(=O)[C@H](CCC(=O)O)NC(=O)[C@H](C)NC(=O)[C@@H](N)Cc1c[nH]cn1)[C@@H](C)O)[C@@H](C)O)C(C)C)C(=O)N[C@@H](Cc1ccccc1)C(=O)N[C@H](C(=O)N[C@@H](C)C(=O)N[C@@H](Cc1c[nH]c2ccccc12)C(=O)N[C@@H](CC(C)C)C(=O)N[C@H](C(=O)N[C@@H](CCCN=C(N)N)C(=O)NCC(=O)N[C@@H](CCCN=C(N)N)C(=O)NCC(=O)O)C(C)C)[C@@H](C)CC)C(=O)O (stereo not given in full) (H-HAEGTFTSDVSSYLEGQAARK([ξγGlu-Palmitoyl])FIAWLVRGRG-OH),0.0363 nM
4,CCCCCCCCCCCCCCCCCC(=O)NC(CCC(=O)NCCCCC(NC(=O)[C@H](CCC(=O)O)NC(=O)[C@H](CCCN=C(N)N)NC(=O)CNC(=O)[C@H](CCCN=C(N)N)NC(=O)[C@@H](NC(=O)[C@H](CC(C)C)NC(=O)[C@H](Cc1c[nH]c2ccccc12)NC(=O)[C@H](C)NC(=O)[C@@H](NC(=O)[C@H](Cc1ccccc1)NC(=O)[C@H](CCC(=O)O)NC(=O)[C@H](CCCN=C(N)N)NC(=O)[C@H](C)NC(=O)[C@H](C)NC(=O)[C@H](CCC(N)=O)NC(=O)CNC(=O)[C@H](CCC(=O)O)NC(=O)[C@H](CC(C)C)NC(=O)[C@H](Cc1ccc(O)cc1)NC(=O)[C@H](CO)NC(=O)[C@H](CO)NC(=O)[C@@H](NC(=O)[C@H](CC(=O)O)NC(=O)[C@H](CO)NC(=O)[C@@H](NC(=O)[C@H](Cc1ccccc1)NC(=O)[C@@H](NC(=O)CNC(=O)[C@H](CCC(=O)O)NC(=O)CNC(=O)[C@@H](N)Cc1c[nH]cn1)[C@@H](C)O)[C@@H](C)O)C(C)C)[C@@H](C)CC)C(C)C)C(=O)O)C(=O)O (stereo not given in full) (H-HGEGTFTSDVSSYLEGQAAREFIAWLVRGRE[ξK]([ξγGlu-Stearoyl])-OH),0.213 nM
5,CCCCCCCCCCCCCCCC(=O)NC(CCC(=O)NCCCCC(NC(=O)CNC(=O)[C@H](CCCN=C(N)N)NC(=O)CNC(=O)[C@H](CCCN=C(N)N)NC(=O)[C@@H](NC(=O)[C@H](CC(C)C)NC(=O)[C@H](Cc1c[nH]c2ccccc12)NC(=O)[C@H](C)NC(=O)[C@@H](NC(=O)[C@H](Cc1ccccc1)NC(=O)[C@H](CCC(=O)O)NC(=O)[C@H](CCCN=C(N)N)NC(=O)[C@H](C)NC(=O)[C@H](C)NC(=O)[C@H](CCC(N)=O)NC(=O)CNC(=O)[C@H](CCC(=O)O)NC(=O)[C@H](CC(C)C)NC(=O)[C@H](Cc1ccc(O)cc1)NC(=O)[C@H](CO)NC(=O)[C@H](CO)NC(=O)[C@@H](NC(=O)[C@H](CC(=O)O)NC(=O)[C@H](CO)NC(=O)[C@@H](NC(=O)[C@H](Cc1ccccc1)NC(=O)[C@@H](NC(=O)CNC(=O)[C@H](CCC(=O)O)NC(=O)CNC(=O)[C@@H](N)Cc1c[nH]cn1)[C@@H](C)O)[C@@H](C)O)C(C)C)[C@@H](C)CC)C(C)C)C(=O)O)C(=O)O (stereo not given in full) (H-HGEGTFTSDVSSYLEGQAAREFIAWLVRGRG[ξK]([ξγGlu-Palmitoyl])-OH),0.328 nM
